Values quoted from earlier work, collected in patent US20250241904A1, “COMPOSITION AND METHOD FOR PREVENTION AND TREATMENT OF CUTANEOUS RADIATION INJURY” (Rythera Therapeutics, Inc., priority 2022, published 2025).

Legend:
[1] = system: radiation proctopathy or proctitis; conditions: in vivo
mice = conditions: topical

For `O=[N+]([O-])OCC(CO[N+](=O)[O-])O[N+](=O)[O-]` [nitroglycerin], the “treating radiation proctopathy or proctitis” value [1] is given as “ineffective”.

In the case of `O=C1O[C@H]([C@@H](O)CO)C(O)=C1O` [Vitamin C], the “results of irradiated breast tissue” value (radiation dermatitis; in vivo) is listed as “without improvement”.

For Sucralfate, the “treating radiation proctopathy or proctitis” value [1] is listed as “ineffective”.

In the case of `CN[C@H]1CC[C@@H](c2ccc(Cl)c(Cl)c2)c2ccccc21` [sertraline], the itch-evoked scratching (mice) is listed as “significant itch-evoked scratching”.

In the case of `Nc1ccc(O)c(C(=O)O)c1` [5-ASA, 5-aminosalicylic acid], the “treating radiation proctopathy or proctitis” value [1] is listed as “unsuccessful”.

In the case of `NCCCNCCSP(=O)(O)O` [amifostine], the dermato-cytoprotective effects (radiation dermatitis; retrospective analysis) is listed as “significant dermato-cytoprotective effects”.
